The text below walks through data of patent US8183263B2 (priority 2007, dated 2012).

A value given as a limit tells only on which side of the number the result lay.

The experiment has as its system HCV replicon. The experiment is described as follows: HCV replicon replication assay (NPT level by captured ELISA). The following applies: Hepatitis C virus, 72 h; Huh-7 HCV replicon-containing cells, three days incubation; read-out: Activity (inhibition of HCV replicon replication). It is filed as cell-based. The method, then:
Compounds claimed herein are tested for the ability to inhibit viral replication of the Hepatitis C replicon in cultured cells in which the HCV replicon construct has been incorporated. The HCV replicon system was described by Bartenschlager, et. al (Science, 285, pp. 110-113 (1999)). The replicon system is predictive of in vivo anti-HCV activity; compounds that are active in humans uniformly evidence activity in the replicon assay.
In this assay HCV replicon containing cells are treated with different concentrations of the test compound to ascertain the ability of the test compound to suppress replication of the HCV replicon. As a positive control, HCV replicon-containing cells are treated with different concentrations of interferon alpha, a known inhibitor of HCV replication. The replicon assay system includes Neomycin Phosphotransferase (NPT) as a component of the replicon itself in order to detect the transcription of replicon gene products in the host cell. Cells in which the HCV replicon is actively replicating have high levels of NPT; the level of NPT is proportional to HCV replication. […] The NPT level of each sample is measured using a captured ELISA.
A protocol for testing compounds for the ability to inhibit viral replication of the Hepatitis C replicon cultured cells in which the replicon construct has been incorporated, follows.
The HCV replicon contains, 5′-3′, the HCV-IRES, the neomycin phosphotransferase (neo) gene, the IRES of encephalomyocarditis virus, which directs translation of HCV sequences NS3 to NS5B, and the 3′-NTR. The sequence of the HCV replicon has been deposited in GenBank (Accession no. AJ242652).
The replicon is transfected into Huh-7 cells using standard methods such as electroporation.
The equipment and materials include, but are not limited to, Huh-7 HCV replicon-containing cells, maintenance media (DMEM (Dulbecco's modified Eagle media) supplemented with 10% FBS, L-glutamine, non-essential amino acids, penicillin (100 units/ml), streptomycin (100 micrograms/ml), and 500 micrograms/ml of Geneticin (G418), screening media (DMEM supplemented with 10% FBS, L-glutamine, non-essential amino acids, penicillin (100 units/ml) and streptomycin (100 micrograms/ml)), 96 well tissue culture plates (flat bottom), 96 well plates (U bottom for drug dilution), Interferon alpha for positive control, fixation reagent (such as methanol: acetone), primary antibody (rabbit anti-NPTII), secondary antibody: Eu—N1 1, and enhancement solution.
HCV replicon-containing cells are rinsed with once PBS once; 2 mls of trypsin are then added. Cells are incubated at 37° C. in a 5% CO2 incubator for 3-5 minutes. 10 mls of complete medium is added to stop the reaction. Cells are blown gently, put into a 15 ml tube, and spun at 1200 rpm for four minutes. The trypsin/medium solution is removed and 5 mls of medium (500 ml DMEM (high glucose)) from BRL catalog #12430-054; 50 mls 10% FBS, 5% Geneticin G418 (50 mg/ml, BRL catalog #10131-035), 5 ml MEM non-essential amino acids (100×BRL #11140-050) and 5 ml pen-strep (BRL #15140-148) is added. The cells and media are mixed carefully
Cells are plated with screening medium (500 ml DMEM (BRL #21063-029), 50 ml FBS (BRL #10082-147) and 5 ml MEM non-essential amino acid (BRL #11140-050) at 6000-7500 cells/100 μl/well of 96 well plate (6-7.5×10^5 cells/10 ml/plate). Plates are placed into 37° C. 5% CO2 incubator overnight.
The following morning, drugs (test compounds or interferon alpha) are diluted in 96 well U bottom plates with media or DMSO/media, depending on the final concentration chosen for screening. Generally for 6 concentrations of each test compounds ranging from 10 micromolar to 0.03 micromolar are applied. 100 μl of the test compound dilution is placed in wells of the 96 well plate containing the HCV replicon cells. Media without drug is added to some wells as a negative controls. DMSO is known to affect cell growth. […]
(In general: Replicon systems follow genome replication, usually without infectious particles.)
Turning to `CCc1ccc(Oc2ccc(Nc3nc(-c4cccnc4)cs3)cc2C(C)=O)cc1`, the EC50 is below 1000 nM.

In the case of `CCCCCCCS(=O)(=O)CCc1ccc(Nc2nc(-c3cccnc3)cs2)cc1` [Cmp 20, N-(4-(2-(heptylsulfonyl)ethyl)phenyl)-4-(pyridin-3-yl)thiazol-2-amine], the EC50 lay in the range of 1000 to 10000 nM.

For the compound `FC(F)(F)c1cc(Nc2nc(-c3cccnc3)cs2)ccc1OCCCCCc1ccccc1` [Cmp 21], the EC50 is below 1000 nM.

For the compound `Cc1ccccc1CCCCOc1ccc(Nc2nc(-c3cccnc3)cs2)cc1C(F)(F)F` [Cmp 22, 4-(pyridin-3-yl)-N-(4-(4-o-tolylbutoxy)-3-(trifluoromethyl)phenyl)thiazol-2-amine], the EC50 is below 1000 nM.

As for `FC(F)(F)c1cc(Nc2nc(-c3cccnc3)cs2)ccc1OCCCCc1ccc(Cl)cc1` [Cmp 23, N-(4-(4-(4-chlorophenyl)butoxy)-3-(trifluoromethyl)phenyl)-4-(pyridin-3-yl)thiazol-2-amine], the EC50 was below 1000 nM.

Turning to `Fc1ccc(C#CCCOc2ccc(Nc3nc(-c4cccnc4)cs3)cc2C(F)(F)F)cc1` [Cmp 24, N-(4-(4-(4-fluorophenyl)but-3-ynyloxy)-3-(trifluoromethyl)phenyl)-4-(pyridin-3-yl)thiazol-2-amine], the EC50 was below 1000 nM.

`CCCCCCCCOc1cc(Nc2nc(-c3cccnc3)cs2)ccc1C` [Cmp 25, N-(4-methyl-3-(octyloxy)phenyl)-4-(pyridin-3-yl)thiazol-2-amine]: the EC50 is below 1000 nM.

As to `CCCCCOc1cc(Nc2nc(-c3cccnc3)cs2)ccc1C` [Cmp 26, N-(4-methyl-3-(pentyloxy)phenyl)-4-(pyridin-3-yl)thiazol-2-amine], the EC50 is below 1000 nM.

On to `CCCCCOc1cc(Nc2nc(-c3cccnc3)cs2)ccc1C#N` [Cmp 27, 2-(pentyloxy)-4-(4-(pyridin-3-yl)thiazol-2-ylamino)benzonitrile], for which the EC50 is below 1000 nM.

Regarding `CCCCCCCCOc1cc(Nc2nc(-c3cccnc3)c(F)s2)ccc1C` [Cmp 28, 5-fluoro-N-(4-methyl-3-(octyloxy)phenyl)-4-(pyridin-3-yl)thiazol-2-amine], the EC50 was below 1000 nM.

Consider `CCCCCOc1cc(Nc2nc(-c3cccnc3)c(F)s2)ccc1C` [Cmp 29], for which the EC50 was below 1000 nM.

Turning to `CCCCCOc1cc(Nc2nc(-c3cccnc3)c(F)s2)ccc1C#N` [Cmp 30, -(5-fluoro-4-(pyridin-3-yl)thiazol-2-ylamino)-2-(pentyloxy)benzonitrile], the EC50 is below 1000 nM.

Turning to `CCCCCCCCc1ccc(Nc2nc(-c3cccnc3)c(F)s2)cc1` [Cmp 31, 5-fluoro-N-(4-octylphenyl)-4-(pyridin-3-yl)thiazol-2-amine], the EC50 was below 1000 nM.

For the compound `CC/C=N/N(c1ccc(OCCCCCCCC)cc1)c1nc(-c2cccnc2)cs1` [Cmp 32, (E)-2-(1-(4-(octyloxy)phenyl)-2-propylidenehydrazinyl)-4-(pyridin-3-yl)thiazole], the EC50 is below 1000 nM.

For the compound `C/C=N/N(c1ccc(OCCCCCCCC)c(C(F)(F)F)c1)c1nc(-c2cccnc2)cs1` [Cmp 33, (E)-2-(2-ethylidene-1-(4-(octyloxy)-3-(trifluoromethyl)phenyl)hydrazinyl)-4-(pyridin-3-yl)thiazole], the EC50 is below 1000 nM.

On to `C/C=N/N(c1ccc(OCCCCCCCC)cc1)c1nc(-c2cccnc2)cs1` [Cmp 34, (E)-2-(2-ethylidene-1-(4-(octyloxy)phenyl)hydrazinyl)-4-(pyridin-3-yl)thiazole], for which the EC50 is below 1000 nM.

Take `CCCCCCCCc1ccc(Nc2nc(-c3cccnc3)c(F)s2)cc1C(F)(F)F` [Cmp 35, 5-fluoro-N-(4-octyl-3-(trifluoromethyl)phenyl)-4-(pyridin-3-yl)thiazol-2-amine]: the EC50 is below 1000 nM.

On to `CCCCCCCCc1ccc(Nc2nc(-c3cnc(OC)nc3)c(F)s2)cc1C(F)(F)F` [Cmp 36, 5-fluoro-4-(2-methoxypyrimidin-5-yl)-N-(4-octyl-3-(trifluoromethyl)phenyl)thiazol-2-amine], for which the EC50 is below 1000 nM.

As to `Cc1ccc(Nc2nc(-c3cccnc3)cs2)cc1OCCOc1ccccc1` [Cmp 37, N-(4-methyl-3-(2-phenoxyethoxy)phenyl)-4-(pyridin-3-yl)thiazol-2-amine], the EC50 is below 1000 nM.

For `Cc1ccc(Nc2nc(-c3cccnc3)cs2)cc1OCC1CCCCC1` [Cmp 38, N-(3-(cyclohexylmethoxy)-4-methylphenyl)-4-(pyridin-3-yl)thiazol-2-amine], the EC50 is below 1000 nM.

In the case of `CCCCCCCCc1ccc(Nc2nc(-c3ccc[n+](O)c3)c(F)s2)cc1` [Cmp 39, 5-fluoro-N-(4-octylphenyl)-4-(pyridine-1-oxide-3-yl)thiazol-2-amine], the EC50 is below 1000 nM.

In the case of `COc1ncc(-c2csc(Nc3ccc(C)c(OCCOc4ccccc4)c3)n2)cn1` [Cmp 40, 4-(2-methoxypyrimidin-5-yl)-N-(4-methyl-3-(2-phenoxyethoxy)phenyl)thiazol-2-amine], the EC50 was below 1000 nM.

As for `Cc1ccc(Nc2nc(-c3ccc(F)cc3)cs2)cc1OCCOc1ccccc1` [Cmp 41], the EC50 was below 1000 nM.

`Cc1ccc(Nc2nc(-c3ccc(F)cc3)cs2)cc1OCC1CCCCC1` [Cmp 42, N-(3-(cyclohexylmethoxy)-4-methylphenyl)-4-(4-fluorophenyl)thiazol-2-amine]: the EC50 was below 1000 nM.

`COc1ncc(-c2csc(Nc3ccc(C)c(OCC4CCCCC4)c3)n2)cn1` [Cmp 43, N-(3-(cyclohexylmethoxy)-4-methylphenyl)-4-(2-methoxypyrimidin-5-yl)thiazol-2-amine]: the EC50 was below 1000 nM.

Take `CCCCCCCCOc1ccc(N(N)c2nc(-c3cccnc3)cs2)cc1C(F)(F)F` [Cmp 44, 2-(1-(4-(octyloxy)-3-(trifluoromethyl)phenyl)hydrazinyl)-4-(pyridin-3-yl)thiazolo]: the EC50 is below 1000 nM.

Regarding `CCCCCCCCOc1cc(Nc2nc(-c3ccc(F)cc3)cs2)ccc1C` [Cmp 45, 4-(4-fluorophenyl)-N-(4-methyl-3-(octyloxy)phenyl)thiazol-2-amine], the EC50 is below 1000 nM.

Turning to `CCCCCCCCOc1cc(Nc2nc(-c3cnc(OC)nc3)cs2)ccc1C` [Cmp 46, 4-(2-methoxypyrimidin-5-yl)-N-(4-methyl-3-(octyloxy)phenyl)thiazol-2-amine], the EC50 is below 1000 nM.

With `FC(F)(F)c1cc(Nc2nc(-c3cccnc3)cs2)ccc1Oc1ccccc1` [Cmp 47, N-(4-phenoxy-3-(trifluoromethyl)phenyl)-4-(pyridin-3-yl)thiazol-2-amine], the EC50 was below 1000 nM.

Regarding `N#Cc1ccc(Oc2ccc(Nc3nc(-c4cccnc4)cs3)cc2C(F)(F)F)cc1` [Cmp 48, 4-(4-(4-(pyridin-3-yl)thiazol-2-ylamino)-2-(trifluoromethyl)phenoxy)benzonitrile], the EC50 is below 1000 nM.

For the compound `CCc1ccc(Oc2ccc(Nc3nc(-c4cccnc4)cs3)cc2C(F)(F)F)cc1` [Cmp 49, N-(4-(4-ethylphenoxy)-3-(trifluoromethyl)phenyl)-4-(pyridin-3-yl)thiazol-2-amine], the EC50 is below 1000 nM.

Turning to `FC(F)(F)c1cc(Nc2nc(-c3cccnc3)cs2)ccc1Oc1ccc(Cl)cc1` [Cmp 50, N-(4-(4-chlorophenoxy)-3-(trifluoromethyl)phenyl)-4-(pyridin-3-yl)thiazol-2-amine], the EC50 was below 1000 nM.

For the compound `COc1ncc(-c2csc(Nc3ccc(Oc4ccccc4)c(C(F)(F)F)c3)n2)cn1` [Cmp 51, 4-(2-methoxypyrimidin-5-yl)-N-(4-phenoxy-3-(trifluoromethyl)phenyl)thiazol-2-amine], the EC50 was below 1000 nM.
